# Assay results as given in patent US4235776A, “Tetrahydro-2H-benzo[c]pyrroles” (Eli Lilly and Company, priority 1979, dated 1980).
# Structures can show the parent of a compound that is named as a salt.
# Columns and labels:
# [1] = test system: prolactin; assay: inhibition of prolactin secretion in reserpine-treated male rats (serum prolactin); format: in vivo, Sprague-Dawley rat; settings: intraperitoneal, one hour after treatment, reserpine-pretreated rats
# Experimental: The compounds of this invention are also useful as prolactin inhibitors and as such can be employed in the treatment of inappropriate lactation, such as postpartum lactation, and of galactorrhea.
# Adult male rats of the Sprague-Dawley strain weighing about 200 g. were housed in an air-conditioned room with controlled lighting (lights on 6 a.m.-8 p.m.) and fed lab chow and water ad libitum. Each rat received an intraperitoneal injection of 2.0 mg. of reserpine in aqueous suspension 18 hours before administration of the isoindole. The purpose of the reserpine was to keep prolactin levels uniformly elevated. The compounds under test were dissolved in water and were injected intraperitoneally at doses ranging from 5 mg/kg down to 50 mcg/kg. Each compound was administered at each dose level to a group of 10 rats, and a control group of 10 intact males received an equivalent amount of solvent. One hour after treatment all rats were killed by decapitation, and 150 μl aliquots of serum were assayed for prolactin.
# The difference between the prolactin level of the treated rats and prolactin level of the control rats divided by the prolactin level of the control rats gives the percent inhibition of prolactin secretion attributable to the compounds of this invention. In the table, column 1 gives the name of the compound; and columns 2-4 the percent prolactin inhibition at the given dose level.
# [2] = test system: mouse; assay: intraperitoneal toxicity in the mouse; format: in vivo
# Experimental: In using the compounds of this invention to inhibit prolactin secretion or to treat Prakinson's syndrome or for other pharmacologic action, a pharmaceutically active compound according to Formula I above, or a salt thereof with a pharmaceutically-acceptable acid, is administered to a subject suffering from Parkinsonism or in need of having their prolactin level reduced in an amount effective to alleviate some of the symptoms of Parkinsonism or to reduce an elevated prolactin level. Oral administration is preferred. If parenteral administration is used, the injection is preferably by the subcutaneous route using an appropriate pharmaceutical formulation. […] In particular, with intravenous or intramuscular administration, a water soluble pharmaceutically-acceptable salt is employed. For oral administration, a pharmaceutically active compound according to Formula I either as the free base or in the form of a salt thereof can also be mixed with standard pharmaceutical excipients and loaded into empty telescoping gelatin capsules or pressed into tablets. The oral dosage range is from about 0.01 to 10 mg/kg of mammalian weight and the parenteral dose range from about 0.0025 to 2.5 mg/kg of mammalian weight.
# [3] = test system: 6-hydroxydopamine-lesioned rats; assay: turning behavior in 6-hydroxydopamine-lesioned rats (dopamine agonist activity); format: in vivo, rat; settings: 1 mg/kg intraperitoneal
# Text: In this test, nigro-neostriatal-lesioned rats are employed prepared by the procedure of Ungerstedt and Arbuthnott, Brain Res, 24, 485 (1970). A compound having dopamine agonist activity upon injection causes the rats to turn in circles contralateral to the side of the lesion. After a latency period, which varies from compound to compound, the number of turns is counted over a 15-minute period.
Compound,Percent Inhibition of Prolactin at a Given Dose Level ([1]; 5 mg/kg) [%],Percent Inhibition of Prolactin at a Given Dose Level ([1]; 50 mcg/kg) [%],Percent Inhibition of Prolactin at a Given Dose Level ([1]; 500 mcg/kg) [%],"lethality ([2]; dosages of 100-300 mg/kg, intraperitoneal)",deaths ([2]; intraperitoneal dosages of 10-30 mg/kg),rats exhibiting turning behavior [3],average turns per rat ([3]; turns counted over a 15-minute period after latency) [turns per rat]
"CCCN(CCC)C1CCc2c[nH]cc2C1 (racemic) [dl-5-di-n-propylamino-4,5,6,7-tetrahydro-2H-benzo[c]pyrrole maleate]",91,20,47,fatal,no deaths,1/3,34
"CCN(CC)C1CCc2c[nH]cc2C1 (racemic) [dl-5-diethylamino-4,5,6,7-tetrahydro-2H-benzo[c]pyrrole maleate]",23,–,25,–,–,–,–
